Test results taken from patent US4868117A, “BBM-1675, a new antitumor antibiotic complex” (Bristol-Myers Company, priority 1985, dated 1989).
“And” between values parts separate entries of the source, which are not always exact repeats. Identical values can stand only once. Like-named read-outs stand apart in the source and are kept apart here.

Key:
L-1210 leukemia [1] = conditions: i.p., qd 1→9
Description: (§1) Lymphocytic leukemia P-388, lymphoid leukemia L-1210, melanotic melanoma B16 and Lewis lung carcinoma were implanted intraperitoneally into male BDF1 mice at an inoculum size of 10^6, 10^5, 5×10^5 and 10^6 cells per mouse, respectively. Graded doses of test compounds were administered to the mice intraperitoneally 24 hours after the tumor inoculation.
(§2) Death or survival of the treated and non-treated mice was recorded daily, and the median survival time (MST) was calculated for each of the test (T) and control (C) groups.

P-388 leukemia [2] = conditions: for Therapeutic index, LD50/MED: MED = minimum effective dose
Description: as §1
(§3) Death or survival of the treated and non-treated mice was recorded daily, and the median survival time (MST) was calculated for each of the test (T) and control (C) groups. […] Second experiments were carried out by intravenous administration of BBM-1675 components against P-388 and L-1210 leukemias, which were inoculated intravenously at 5×10^5 and 10^4 cells per mouse, respectively.

male ddY mice = test: Toxicity (LD50) in male ddY mice; conditions: multiple dose (qd 1→9), i.p.
P-388 leukemia [3] = test: Intravenously implanted P-388 leukemia, i.v. treatment; conditions: days 1, 4 and 7, lines in dose order as in E66 (Adriamycin starts with 30)
Description: as §1, §3

L-1210 leukemia [4] = test: Intravenously implanted L-1210 leukemia, i.v. treatment; conditions: days 1, 4 and 7, lines in dose order as in E71 (Adriamycin starts with 16)
Description: as §1, §3

[5] = i.p., qd 1→11, lines in dose order as in E53
[6] = i.p., qd 1→9, lines in dose order as in E48

Description for B16 melanoma: as §1, §2
Description for Lewis lung carcinoma: as §1, §2

CO[C@@H]1[C@H](O)C[C@@H](O[C@@H]2C[C@H](Oc3cc4cc5c(c(O)c4c(O)c3C)C(=O)[C@@H](O[C@H]3C[C@@H](O[C@H]4C[C@@H](O[C@H]6C[C@](C)(O)[C@@H](OC(C)=O)[C@H](C)O6)[C@H](O)[C@@H](C)O4)[C@H](O)[C@@H](C)O3)[C@H]([C@H](OC)C(=O)[C@@H](O)[C@@H](C)O)C5)O[C@H](C)[C@@H]2OC(C)=O)O[C@@H]1C [Chromomycin A3, chromomycin A3]
Therapeutic index, LD50/MED (Lewis lung carcinoma; LL, MED = minimum effective dose): 23 | Survivors on day 5 (Lewis lung carcinoma; [5]): 6/6 and 5/5 | Survivors on day 45 (Lewis lung carcinoma; [5]): 1/6 and 0/6 | MST (Lewis lung carcinoma; mouse, in vivo, ip): 17.0 | Survivors on day 45 (Lewis lung carcinoma; mouse, in vivo, ip): 0/5 | MST (L-1210 leukemia [1]; lines in dose order as in E43): 8.5 days and 11.0 days and 10.0 days | Survivors on day 5 (L-1210 leukemia [1]; lines in dose order as in E43): 6/6 | Survivors on day 45 (L-1210 leukemia [1]; lines in dose order as in E43): 0/6 | T/C (L-1210 leukemia [1]; ≥[…] significant, mg/kg/day in line order: A1 0.003,0.001,0.0003,0.0001, A2 0.03,0.01,0.003,0.001,0.0003, chromomycin A3 0.3,0.1,0.03,0.01,0.003): 89% | Therapeutic index, LD50/MED (P-388 leukemia [2]; P-388, qd 1→9): 8 | Therapeutic index, LD50/MED (P-388 leukemia [2]; P-388, single): 8 | Survivors on day 45 (P-388 leukemia [2]; mouse, in vivo, ip): 0/5 and 1/5 | LD50 (male ddY mice): 0.23 mg/kg/day | Therapeutic index, LD50/MED (B16 melanoma; B16, MED = minimum effective dose): 23 | MST (B16 melanoma; [6]): 23.0 days and 21.0 days | Survivors on day 5 (B16 melanoma; [6]): 6/6 | Survivors on day 45 (B16 melanoma; [6]): 0/6 | MST (B16 melanoma; mouse, in vivo, ip): 18.0

COc1cccc2c1C(=O)c1c(O)c3c(c(O)c1C2=O)C[C@@](O)(C(=O)CO)C[C@@H]3O[C@H]1C[C@H](N)[C@H](O)[C@H](C)O1 [Adriamycin, adriamycin]
Survivors on day 5 (P-388 leukemia [3]): 0/6 and 6/6 | Survivors on day 45 (P-388 leukemia [3]): 0/6 | Survivors on day 5 (L-1210 leukemia [4]): 2/6 and 6/6 | Survivors on day 45 (L-1210 leukemia [4]): 0/6
